Assay results from patent publication US6958321B2, “Isolation, characterization, cloning and use of a mushroom lectin” (The Regents of the University of Michigan, priority 2001, dated 2005).

Tests used:
[1] = biological target: T1, Marasmius oreades lectin (MOA, cMOA) (Marasmius oreades, UniProt Q8X123); assay: Isothermal titration calorimetry, MOA of Example 1 (proteolyzed, clipped form, cMOA); assay type: binding; details: isothermal titration calorimetry
T1 sequence (Q8X123 1-293): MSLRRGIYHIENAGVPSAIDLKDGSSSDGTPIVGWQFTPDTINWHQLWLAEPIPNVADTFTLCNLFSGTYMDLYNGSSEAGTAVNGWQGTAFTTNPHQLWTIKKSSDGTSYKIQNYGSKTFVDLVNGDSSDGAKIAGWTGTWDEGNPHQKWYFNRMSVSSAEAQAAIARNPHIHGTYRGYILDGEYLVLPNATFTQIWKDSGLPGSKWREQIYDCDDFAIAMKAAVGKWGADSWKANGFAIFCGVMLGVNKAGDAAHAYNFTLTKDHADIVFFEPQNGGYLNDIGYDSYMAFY

MOA = assay: Sugar ligand binding to MOA (hemagglutination inhibition, hapten inhibition of precipitation, calorimetry); design: species or system Marasmius oreades; details: binding to MOA in solution
Procedure: All three methods gave approximately the same results, with the calorimetric data being the most precise.
Being a blood type B agglutinin, MOA was assayed primarily against D-galactosyl-terminated sugars and oligosaccharides. […] Methyl α-galactopyranoside was similarly very poor. […] While not limited to any particular mechanism, and with the understanding that knowledge of the underlying mechanism is not required for the practice of the invention, it is believed that recognition of the L-fucosyl moiety is the reason for limited agglutination of human O erythrocytes and a weak precipitin curve with blood group H substance.

## CC1OC(OC2C(OC3C(CO)OC(O)C(O)C3O)OC(CO)C(O)C2O)C(O)C(O)C1O [2′ Fucosyllactose, L-Fucα1,2Ga1β1,4G1c]
[1]
  Ka: 548 M⁻¹
  Kd: 1.83 mM
  TΔS: 6.4 kcal/mol
  −ΔG: 3.70 kcal/mol
  −ΔH: 10.1 kcal/mol
[1]; Table 3
  Ka: .548 10^3 M^−1
MOA
  ligand binding: low but measurable binding

## OCC1OC(OC2C(O)OC(CO)C(O)C2O)C(O)C(O)C1O (stereo not drawn) [Galβ1,2Gal, Ga1α1,2Ga1]
[1]
  Kd: > 10 mM
[1]; Table 3
  Ka: <0.1 10^3 M^−1
  ligand binding: bound poorly or not at all
MOA
  ligand binding: bound poorly or not at all

## OCC1OC(OC2C(CO)OC(O)C(O)C2O)C(O)C(O)C1O (stereo not drawn) [Galβ1,4Gal, G1α1,4Ga1]
[1]
  Kd: > 10 mM
[1]; Table 3
  Ka: <0.1 10^3 M^−1
  ligand binding: bound poorly or not at all
MOA
  ligand binding: bound poorly or not at all

## OC[C@H]1O[C@@H](OC[C@H]2OC(O)[C@H](O)[C@@H](O)[C@H]2O)[C@H](O)[C@@H](O)[C@H]1O (stereo partly drawn) [Galβ1,6Gal]
[1]
  TΔS: 2.84 kcal/mol
  −ΔG: 3.28 kcal/mol
  −ΔH: 6.12 kcal/mol

## CO[C@@H]1O[C@H](CO)[C@@H](O)[C@H](O[C@@H]2O[C@H](CO)[C@H](O)[C@H](O)[C@H]2O)[C@H]1NC(C)=O [LactoNbioseβMe]
[1]
  Kd: 4.67 mM
  TΔS: 3.49 kcal/mol
  −ΔG: 3.15 kcal/mol
  −ΔH: 6.64 kcal/mol
[1]; Table 3
  Ka: 0.214 10^3 M^−1

## OC[C@H]1O[C@@H](O[C@H]2[C@H](O)[C@@H](O)C(O)O[C@@H]2CO)[C@H](O)[C@@H](O)[C@H]1O (stereo partly drawn) [Lactose]
[1]
  Ka: 185 M⁻¹
  Kd: 5.08 mM
  TΔS: 5.76 kcal/mol
  −ΔG: 3.1 kcal/mol
  −ΔH: 8.86 kcal/mol
[1]; Table 3
  Ka: 0.197 10^3 M^−1
MOA
  ligand binding: very poor ligands

## CO[C@H]1O[C@H](CO)[C@H](O)[C@H](O)[C@H]1O [Me-α-Gal, Methyl α-galactopyranoside]
[1]
  Kd: 8.13 mM
  TΔS: 3.06 kcal/mol
  −ΔG: 2.82 kcal/mol
  −ΔH: 5.88 kcal/mol
[1]; Table 3
  Ka: 0.123 10^3 M^−1
MOA
  ligand binding: very poor

## OC[C@H]1O[C@H](OCC2O[C@@H](O)[C@H](O)[C@@H](O)[C@@H]2O)[C@H](O)[C@@H](O)[C@H]1O (stereo partly drawn) [melibiose, Ga1α1,6G1c]
MOA
  ligand binding: very poor ligands

## Ga1α1,6Ga1
[1]; Table 3
  ligand binding: bound poorly or not at all
MOA
  ligand binding: bound poorly or not at all
